One test deals with Micrococcus luteus. The test can be described thus: Antibacterial activity against Sarcina lutea. It is filed as functional.
In the next test the test system is Bacillus subtilis. The test can be described thus: Antibacterial activity against Bacillus subtilis. In kind it is functional.

In brackets after ≈: the same amount, converted by molar mass.

As for `COc1cccc2c1cc1c3c(cc4c(c32)OCO4)C(=O)N1[C@@H]1O[C@H](COC(=O)/C=C/c2ccc(O)cc2)[C@@H](O)[C@H](O)[C@H]1O`, the minimal inhibitory concentration (MIC) with Micrococcus luteus is 175 µg/mL (≈ 291 µM); in the test on Bacillus subtilis, 43.8 µg/mL (≈ 72.8 µM).

Compound `O=C(N[C@H](CO)[C@H](O)c1ccc([N+](=O)[O-])cc1)C(Cl)Cl` [CHLORAMPHENICOL] came in with an MIC against Micrococcus luteus of 5 µg/mL (≈ 15.5 µM).

The MIC is the least concentration at which growth counts as inhibited.

Values taken from ChEMBL document CHEMBL1149736, “A new acylated N-glycosyl lactam from Aristolochia contorta” (1992).
